Source: US10040781B2, “Tank-binding kinase inhibitor compounds” (Gilead Sciences, Inc., priority 2014, dated 2018)

Assays:
IKKε = IKKε (Homo sapiens (Human), UniProt Q14164); experiment: IKKε TR-FRET enzymatic assay; type: biochemical; conditions: read-out: IKKe IC50
hJAK2 = hJAK2 (Homo sapiens (Human), UniProt O60674); experiment: hJAK2 LANCE TR-FRET enzymatic assay; type: biochemical; conditions: read-out: JAK2 IC50
TBK1 = TBK1 (Homo sapiens (Human), UniProt Q9UHD2); experiment: TBK1 TR-FRET enzymatic assay;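 note: phosphorylation of a biotinylated Ser/Thr peptide by purified full-length recombinant TBK1, read by TR-FRET after 240 min at 25 °C, IC50 is the geometric mean of at least four runs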
Chain of TBK1 (Q9UHD2 whole entry): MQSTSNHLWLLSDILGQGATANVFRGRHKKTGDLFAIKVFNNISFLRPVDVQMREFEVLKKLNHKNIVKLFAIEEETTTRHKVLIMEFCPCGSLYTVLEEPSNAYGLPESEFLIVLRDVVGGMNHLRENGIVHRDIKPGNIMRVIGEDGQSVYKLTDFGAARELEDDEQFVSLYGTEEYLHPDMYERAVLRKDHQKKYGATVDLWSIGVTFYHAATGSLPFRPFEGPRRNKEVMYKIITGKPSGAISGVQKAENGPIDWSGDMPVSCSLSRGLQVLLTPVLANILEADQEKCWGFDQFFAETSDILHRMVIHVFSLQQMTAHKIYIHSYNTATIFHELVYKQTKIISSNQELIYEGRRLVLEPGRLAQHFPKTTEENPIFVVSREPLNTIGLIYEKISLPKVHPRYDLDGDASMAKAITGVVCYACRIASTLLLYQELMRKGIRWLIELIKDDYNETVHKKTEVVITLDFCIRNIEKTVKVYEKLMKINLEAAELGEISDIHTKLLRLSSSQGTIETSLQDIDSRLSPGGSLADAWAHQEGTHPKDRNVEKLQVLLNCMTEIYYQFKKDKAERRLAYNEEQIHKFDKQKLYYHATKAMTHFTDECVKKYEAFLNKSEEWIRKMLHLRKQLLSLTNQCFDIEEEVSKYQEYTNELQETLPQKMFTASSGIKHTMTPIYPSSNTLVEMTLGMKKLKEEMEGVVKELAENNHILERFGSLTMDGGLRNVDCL

Chain of IKKε (Q14164 whole entry): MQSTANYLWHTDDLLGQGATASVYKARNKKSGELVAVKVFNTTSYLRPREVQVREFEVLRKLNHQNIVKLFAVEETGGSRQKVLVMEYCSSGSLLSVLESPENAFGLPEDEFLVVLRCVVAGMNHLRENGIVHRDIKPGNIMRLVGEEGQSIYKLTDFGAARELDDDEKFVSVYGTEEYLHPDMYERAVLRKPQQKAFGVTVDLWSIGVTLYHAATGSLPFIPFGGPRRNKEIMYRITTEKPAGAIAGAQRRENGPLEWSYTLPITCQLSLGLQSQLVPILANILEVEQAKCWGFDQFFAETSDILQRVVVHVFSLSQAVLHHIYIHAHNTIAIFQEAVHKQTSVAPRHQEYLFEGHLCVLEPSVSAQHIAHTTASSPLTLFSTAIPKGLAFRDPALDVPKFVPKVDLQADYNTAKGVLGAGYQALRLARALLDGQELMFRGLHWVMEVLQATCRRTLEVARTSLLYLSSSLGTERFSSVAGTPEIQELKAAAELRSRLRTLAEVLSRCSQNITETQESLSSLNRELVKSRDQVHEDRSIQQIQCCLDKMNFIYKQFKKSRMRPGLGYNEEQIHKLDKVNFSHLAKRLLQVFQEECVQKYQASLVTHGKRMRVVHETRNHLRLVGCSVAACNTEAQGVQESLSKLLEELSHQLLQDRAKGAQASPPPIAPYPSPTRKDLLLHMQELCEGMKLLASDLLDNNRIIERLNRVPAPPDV
Chain of hJAK2 (O60674 whole entry): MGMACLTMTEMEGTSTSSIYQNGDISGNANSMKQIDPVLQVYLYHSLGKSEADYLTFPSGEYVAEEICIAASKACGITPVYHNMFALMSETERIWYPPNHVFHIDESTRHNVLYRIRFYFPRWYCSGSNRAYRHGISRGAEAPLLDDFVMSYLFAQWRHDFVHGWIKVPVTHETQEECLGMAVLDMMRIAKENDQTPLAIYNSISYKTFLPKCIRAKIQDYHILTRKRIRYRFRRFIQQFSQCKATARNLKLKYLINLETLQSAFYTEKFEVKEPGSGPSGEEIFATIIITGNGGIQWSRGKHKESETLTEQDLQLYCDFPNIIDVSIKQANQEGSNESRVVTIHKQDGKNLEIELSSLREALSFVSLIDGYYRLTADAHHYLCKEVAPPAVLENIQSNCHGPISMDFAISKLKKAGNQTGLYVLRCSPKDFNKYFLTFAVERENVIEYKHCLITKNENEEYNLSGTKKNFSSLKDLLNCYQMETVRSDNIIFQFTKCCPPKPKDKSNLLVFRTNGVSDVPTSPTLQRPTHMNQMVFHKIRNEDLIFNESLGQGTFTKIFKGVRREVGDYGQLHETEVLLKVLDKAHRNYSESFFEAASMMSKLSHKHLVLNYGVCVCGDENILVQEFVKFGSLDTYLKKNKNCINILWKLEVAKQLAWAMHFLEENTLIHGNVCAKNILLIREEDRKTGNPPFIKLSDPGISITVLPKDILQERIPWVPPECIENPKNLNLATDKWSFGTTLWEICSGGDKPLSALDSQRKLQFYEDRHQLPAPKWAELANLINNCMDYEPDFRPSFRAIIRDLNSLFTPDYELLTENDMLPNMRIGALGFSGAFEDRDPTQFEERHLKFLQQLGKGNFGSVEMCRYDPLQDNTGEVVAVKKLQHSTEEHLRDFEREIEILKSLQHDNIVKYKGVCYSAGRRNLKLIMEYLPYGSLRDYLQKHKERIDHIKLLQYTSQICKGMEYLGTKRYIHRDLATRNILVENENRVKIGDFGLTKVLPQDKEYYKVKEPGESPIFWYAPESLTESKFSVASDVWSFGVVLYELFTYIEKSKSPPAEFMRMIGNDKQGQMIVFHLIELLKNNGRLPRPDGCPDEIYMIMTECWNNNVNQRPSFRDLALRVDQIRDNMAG

| IC50 (IKKε) | IC50 (hJAK2) | IC50 (TBK1) | SMILES |
| --- | --- | --- | --- |
| 47 nM | 32 nM | 11 nM | N#Cc1cc(-c2ncnc(Nc3ccc(N4CCN(C5COC5)CC4)cc3)n2)ccc1NC1CCOCC1 [Example 121, 5-(4-((4-(4-(oxetan-3-yl)piperazin-1-yl)phenyl)amino)-1,3,5-triazin-2-yl)-2-((tetrahydro-2H-pyran-4-yl)amino)benzonitrile] |
| 15 nM | 402 nM | 15 nM | COC1CCC(Oc2ccc(-c3ncnc(Nc4ccc(N5CCN(C6COC6)CC5)cc4)n3)cc2C#N)CC1 (stereo not drawn) [Example 122, 2-((4-methoxycyclohexyl)oxy)-5-(4-((4-(4-(oxetan-3-yl)piperazin-1-yl)phenyl)amino)-1,3,5-triazin-2-yl)benzonitrile] |
| 132 nM | 546 nM | 31 nM | C[C@@H](CO)C(=O)N1CC[C@H](Oc2ccc(-c3ncnc(Nc4ccc(N5CCN(C6COC6)CC5)cc4)n3)cc2C#N)[C@H](F)C1 [Example 123, 2-(((3R,4S)-3-fluoro-1-((S)-3-hydroxy-2-methylpropanoyl)piperidin-4-yl)oxy)-5-(4-((4-(4-(oxetan-3-yl)piperazin-1-yl)phenyl)amino)-1,3,5-triazin-2-yl)benzonitrile] |
| 54 nM | 676 nM | 15 nM | C[C@H](CO)C(=O)N1CC[C@H](Oc2ccc(-c3ncnc(Nc4ccc(N5CCN(C6COC6)CC5)cc4)n3)cc2C#N)[C@H](F)C1 [Example 124, 2-(((3R,4S)-3-fluoro-1-((R)-3-hydroxy-2-methylpropanoyl)piperidin-4-yl)oxy)-5-(4-((4-(4-(oxetan-3-yl)piperazin-1-yl)phenyl)amino)-1,3,5-triazin-2-yl)benzonitrile] |
| 86 nM | 952 nM | 31 nM | N#Cc1cc(-c2ncnc(Nc3ccc(N4CCN(C5COC5)CC4)cc3)n2)ccc1O[C@@H]1CCCN(C(=O)CO)C1 [Example 125, (R)-2-((1-(2-hydroxyacetyl)piperidin-3-yl)oxy)-5-(4-((4-(4-(oxetan-3-yl)piperazin-1-yl)phenyl)amino)-1,3,5-triazin-2-yl)benzonitrile] |
| 111 nM | ≥ 1000 nM | 56 nM | C[C@H](O)C(=O)N1CCC[C@@H](Oc2ccc(-c3ncnc(Nc4ccc(N5CCN(C6COC6)CC5)cc4)n3)cc2C#N)C1 [Example 126, 2-(((R)-1-((S)-2-hydroxypropanoyl)piperidin-3-yl)oxy)-5-(4-((4-(4-(oxetan-3-yl)piperazin-1-yl)phenyl)amino)-1,3,5-triazin-2-yl)benzonitrile] |
| 562 nM | 394 nM | 180 nM | N#Cc1cc(-c2ncnc(Nc3ccc(N4CCN(C5COC5)CC4)cc3)n2)ccc1O[C@H]1CCCN(C(=O)CO)C1 [Example 127, (S)-2-((1-(2-hydroxyacetyl)piperidin-3-yl)oxy)-5-(4-((4-(4-(oxetan-3-yl)piperazin-1-yl)phenyl)amino)-1,3,5-triazin-2-yl)benzonitrile] |
| 177 nM | 632 nM | 37 nM | C[C@H](O)C(=O)N1CCC[C@H](Oc2ccc(-c3ncnc(Nc4ccc(N5CCN(C6COC6)CC5)cc4)n3)cc2C#N)C1 [Example 128, 2-(((S)-1-((S)-2-hydroxypropanoyl)piperidin-3-yl)oxy)-5-(4-((4-(4-(oxetan-3-yl)piperazin-1-yl)phenyl)amino)-1,3,5-triazin-2-yl)benzonitrile] |
| 619 nM | ≥ 1000 nM | 334 nM | N#Cc1cc(-c2ncnc(Nc3ccc(N4CCN(C5COC5)CC4)cc3)n2)ccc1O[C@H]1CCN(C(=O)[C@H]2CCCCN2)C[C@H]1F [Example 129, 2-(((3R,4S)-3-fluoro-1-((R)-piperidine-2-carbonyl)piperidin-4-yl)oxy)-5-(4-((4-(4-(oxetan-3-yl)piperazin-1-yl)phenyl)amino)-1,3,5-triazin-2-yl)benzonitrile] |
| 51 nM | ≥ 1000 nM | 25 nM | N#Cc1cc(-c2ncnc(Nc3ccc(N4CCN(C5COC5)CC4)cc3)n2)ccc1O[C@H]1CCN(C(=O)[C@H]2CC(F)(F)CN2)C[C@H]1F [Example 132, 2-(((3R,4S)-1-((R)-4,4-difluoropyrrolidine-2-carbonyl)-3-fluoropiperidin-4-yl)oxy)-5-(4-((4-(4-(oxetan-3-yl)piperazin-1-yl)phenyl)amino)-1,3,5-triazin-2-yl)benzonitrile] |
| ≥ 1000 nM | 371 nM | 520 nM | C[C@H](O)C(=O)N1CCC(Oc2cc(C#N)cc(-c3ncnc(Nc4ccc(N5CCN(C6COC6)CC5)cc4)n3)c2)CC1 [Example 134, (S)-3-((1-(2-hydroxypropanoyl)piperidin-4-yl)oxy)-5-(4-((4-(4-(oxetan-3-yl)piperazin-1-yl)phenyl)amino)-1,3,5-triazin-2-yl)benzonitrile] |
| 73 nM | 167 nM | 46 nM | N#Cc1cc(-c2ncnc(Nc3ccc(N4CCN(C5COC5)CC4)cc3)n2)ccc1O[C@H]1CCN(C(=O)c2cn[nH]c2Cl)C[C@H]1F [Example 136, 2-(((3R,4S)-1-(5-chloro-1H-pyrazole-4-carbonyl)-3-fluoropiperidin-4-yl)oxy)-5-(4-((4-(4-(oxetan-3-yl)piperazin-1-yl)phenyl)amino)-1,3,5-triazin-2-yl)benzonitrile] |
| 32 nM | 207 nM | 19 nM | N#Cc1cc(-c2ncnc(Nc3ccc(N4CCN(C5COC5)CC4)cc3)n2)ccc1O[C@H]1CCN(C(=O)c2cc[nH]c(=O)c2)C[C@H]1F [Example 137, 2-(((3R,4S)-3-fluoro-1-(2-oxo-1,2-dihydropyridine-4-carbonyl)piperidin-4-yl)oxy)-5-(4-((4-(4-(oxetan-3-yl)piperazin-1-yl)phenyl)amino)-1,3,5-triazin-2-yl)benzonitrile] |
| 2 nM | 146 nM | 2 nM | N#CCC(=O)N1CC[C@H](Oc2ccc(-c3ncnc(Nc4ccc(N5CCN(C6COC6)CC5)cc4)n3)cc2C#N)[C@H](F)C1 [Example 138, 2-(((3R,4S)-1-(2-cyanoacetyl)-3-fluoropiperidin-4-yl)oxy)-5-(4-((4-(4-(oxetan-3-yl)piperazin-1-yl)phenyl)amino)-1,3,5-triazin-2-yl)benzonitrile] |

| SMILES | IC50 (IKKε) | IC50 (hJAK2) | IC50 (TBK1) |
| --- | --- | --- | --- |
| N#Cc1cc(-c2ncnc(Nc3ccc(N4CCN(C5COC5)CC4)cc3)n2)ccc1O[C@H]1CCN(C(=O)[C@H]2CCCN2)C[C@H]1F [Example 130, 2-(((3R,4S)-3-fluoro-1-((R)-pyrrolidine-2-carbonyl)piperidin-4-yl)oxy)-5-(4-((4-(4-(oxetan-3-yl)piperazin-1-yl)phenyl)amino)-1,3,5-triazin-2-yl)benzonitrile] | 73 nM | ≥ 1000 nM | 29 nM |
| N#Cc1cc(-c2ncnc(Nc3ccc(N4CCN(C5COC5)CC4)cc3)n2)ccc1O[C@H]1CCN(C(=O)[C@@H]2CCCCN2)C[C@H]1F [Example 131, 2-(((3R,4S)-3-fluoro-1-((S)-piperidine-2-carbonyl)piperidin-4-yl)oxy)-5-(4-((4-(4-(oxetan-3-yl)piperazin-1-yl)phenyl)amino)-1,3,5-triazin-2-yl)benzonitrile] | 175 nM | ≥ 1000 nM | 101 nM |
